{"source": "patent US20200024278A1", "about": "“COMPOSITION COMPRISING ANTIBIOTIC COMPOUND AND AN HETEROCYCLIC COMPOUND AND THEIR USE IN PREVENTING OR TREATING BACTERIAL INFECTIONS” (MUTABILIS, priority 2016, published 2020)", "test_in_all_cases": "MIC, broth microdilution (CLSI), substance alone or ATB combined with compound at 4 or 8 μg/mL", "key": {"ECL P99": {"system": "ECL P99", "type": "cell-based, E. cloacae", "conditions": "ECL P99; for MIC: Enterobacter cloacae", "summary_of_the_method": "(§1)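 Each strain received 5·10^5 CFU/mL of log-phase cells in ca-MHB over DMSO-spotted compound or compound-antibiotic combinations. After 16-20 h at 35° C, growth was scored visually.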"}, "PAE 105250": {"system": "PAE 105250", "type": "cell-based, P. aeruginosa", "conditions": "PAE 105250", "summary_of_the_method": "as §1"}, "PAE UFR48": {"system": "PAE UFR48", "type": "cell-based, P. aeruginosa", "conditions": "PAE UFR48", "summary_of_the_method": "as §1"}, "PAE UFR90": {"system": "PAE UFR90", "type": "cell-based, P. aeruginosa", "conditions": "PAE UFR90", "summary_of_the_method": "as §1"}, "SAU 29213": {"system": "SAU 29213", "type": "cell-based, S. aureus", "conditions": "SAU 29213", "summary_of_the_method": "as §1"}, "SPN 49619": {"system": "SPN 49619", "type": "cell-based, S. pneumoniae", "conditions": "SPN 49619", "summary_of_the_method": "as §1"}, "[1]": {"conditions": "Pseudomonas aeruginosa, antibiotic alone, read-out: MIC ATB alone"}}, "note": "Like-named read-outs stand apart in the source and are kept apart here."}
{"smiles": "CC1(C)S[C@@H]2[C@H](NC(=O)[C@H](N)c3ccc(O)cc3)C(=O)N2[C@H]1C(=O)O", "note": "[AMX, Amoxicillin, reference compound]", "values": [{"measurement": "MIC ATB combined with Example 1 @8 μg/ml", "setting": "ECL P99; with Example 1 at 8 μg/ml", "value": "<0.031", "unit": "µg/mL"}, {"measurement": "MIC ATB combined with Example 7 @8 μgml", "setting": "ECL P99; with Example 7 at 8 μg/ml", "value": ">32", "unit": "µg/mL"}, {"measurement": "MIC ATB combined with Example 9 @4 μg/ml", "setting": "ECL P99; with Example 9 @4 μg/ml", "value": "<0.031", "unit": "µg/mL"}, {"measurement": "MIC ATB combined with Example 9 @4 μg/ml", "setting": "ECL P99; with Example 9 at 4 μg/ml", "value": "<0.031", "unit": "µg/mL"}, {"measurement": "MIC ATB combined with Example 11 @8 μg/ml", "setting": "ECL P99; with Example 11 at 8 μg/ml", "value": "<0.031", "unit": "µg/mL"}, {"measurement": "MIC ATB combined with Example 12 @8 μg/ml", "setting": "ECL P99; with Example 12 at 8 μg/ml", "value": "<0.031", "unit": "µg/mL"}, {"measurement": "MIC ATB combined with Example 13 @8 μg/ml", "setting": "ECL P99; with Example 13 at 8 μg/ml", "value": ">32", "unit": "µg/mL"}, {"measurement": "MIC ATB combined with Example 14 @8 μg/ml", "setting": "ECL P99; with Example 14 at 8 μg/ml", "value": "<0.031", "unit": "µg/mL"}, {"measurement": "MIC ATB combined with Example 15 @4 μgml", "setting": "ECL P99; with Example 15 at 4 μg/ml", "value": "<0.031", "unit": "µg/mL"}, {"measurement": "MIC ATB combined with Example 16 @4 μg/ml", "setting": "ECL P99; with Example 16 at 4 μg/ml", "value": "<0.031", "unit": "µg/mL"}, {"measurement": "MIC", "setting": "ECL P99; antibiotic alone, read-out: MIC ATB alone", "value": "> 1020", "unit": "µg/mL"}, {"measurement": "MIC", "setting": "ECL P99; substance alone, read-out: MIC", "value": "> 1020", "unit": "µg/mL"}, {"measurement": "MIC ATB combined with Example 7 @8 μgml", "setting": "PAE 105250; with Example 7 at 8 μg/ml", "value": ">32", "unit": "µg/mL"}, {"measurement": "MIC ATB combined with Example 9 @4 μg/ml", "setting": "PAE 105250; with Example 9 @4 μg/ml", "value": ">32", "unit": "µg/mL"}, {"measurement": "MIC ATB combined with Example 9 @4 μg/ml", "setting": "PAE 105250; with Example 9 at 4 μg/ml", "value": ">32", "unit": "µg/mL"}, {"measurement": "MIC ATB combined with Example 11 @8 μg/ml", "setting": "PAE 105250; with Example 11 at 8 μg/ml", "value": ">32", "unit": "µg/mL"}, {"measurement": "MIC ATB combined with Example 12 @8 μg/ml", "setting": "PAE 105250; with Example 12 at 8 μg/ml", "value": ">32", "unit": "µg/mL"}, {"measurement": "MIC ATB combined with Example 13 @8 μg/ml", "setting": "PAE 105250; with Example 13 at 8 μg/ml", "value": ">32", "unit": "µg/mL"}, {"measurement": "MIC ATB combined with Example 14 @8 μg/ml", "setting": "PAE 105250; with Example 14 at 8 μg/ml", "value": ">32", "unit": "µg/mL"}, {"measurement": "MIC ATB combined with Example 15 @4 μgml", "setting": "PAE 105250; with Example 15 at 4 μg/ml", "value": ">32", "unit": "µg/mL"}, {"measurement": "MIC ATB combined with Example 16 @4 μg/ml", "setting": "PAE 105250; with Example 16 at 4 μg/ml", "value": ">32", "unit": "µg/mL"}, {"measurement": "MIC", "setting": "PAE 105250; [1]", "value": "> 1020", "unit": "µg/mL"}, {"measurement": "MIC ATB combined with Example 1 @8 μg/ml", "setting": "PAE UFR48; with Example 1 @8 μg/ml", "value": "<0.031", "unit": "µg/mL"}, {"measurement": "MIC ATB combined with Example 1 @8 μg/ml", "setting": "PAE UFR48; with Example 1 at 8 μg/ml", "value": "<0.031", "unit": "µg/mL"}, {"measurement": "MIC ATB combined with Example 7 @8 μgml", "setting": "PAE UFR48; with Example 7 at 8 μg/ml", "value": ">32", "unit": "µg/mL"}, {"measurement": "MIC ATB combined with Example 9 @4 μg/ml", "setting": "PAE UFR48; with Example 9 @4 μg/ml", "value": ">32", "unit": "µg/mL"}, {"measurement": "MIC ATB combined with Example 9 @4 μg/ml", "setting": "PAE UFR48; with Example 9 at 4 μg/ml", "value": ">32", "unit": "µg/mL"}, {"measurement": "MIC ATB combined with Example 11 @8 μg/ml", "setting": "PAE UFR48; with Example 11 at 8 μg/ml", "value": ">32", "unit": "µg/mL"}, {"measurement": "MIC ATB combined with Example 12 @8 μg/ml", "setting": "PAE UFR48; with Example 12 at 8 μg/ml", "value": ">32", "unit": "µg/mL"}, {"measurement": "MIC ATB combined with Example 13 @8 μg/ml", "setting": "PAE UFR48; with Example 13 at 8 μg/ml", "value": ">32", "unit": "µg/mL"}, {"measurement": "MIC ATB combined with Example 14 @8 μg/ml", "setting": "PAE UFR48; with Example 14 at 8 μg/ml", "value": ">32", "unit": "µg/mL"}, {"measurement": "MIC ATB combined with Example 15 @4 μgml", "setting": "PAE UFR48; with Example 15 at 4 μg/ml", "value": ">32", "unit": "µg/mL"}, {"measurement": "MIC ATB combined with Example 16 @4 μg/ml", "setting": "PAE UFR48; with Example 16 at 4 μg/ml", "value": ">32", "unit": "µg/mL"}, {"measurement": "MIC", "setting": "PAE UFR48; [1]", "value": "> 1020", "unit": "µg/mL"}, {"measurement": "MIC ATB combined with Example 1 @8 μg/ml", "setting": "PAE UFR90; with Example 1 @8 μg/ml", "value": "<0.031", "unit": "µg/mL"}, {"measurement": "MIC ATB combined with Example 1 @8 μg/ml", "setting": "PAE UFR90; with Example 1 at 8 μg/ml", "value": "<0.031", "unit": "µg/mL"}, {"measurement": "MIC ATB combined with Example 7 @8 μgml", "setting": "PAE UFR90; with Example 7 at 8 μg/ml", "value": ">32", "unit": "µg/mL"}, {"measurement": "MIC ATB combined with Example 9 @4 μg/ml", "setting": "PAE UFR90; with Example 9 @4 μg/ml", "value": ">32", "unit": "µg/mL"}, {"measurement": "MIC ATB combined with Example 9 @4 μg/ml", "setting": "PAE UFR90; with Example 9 at 4 μg/ml", "value": ">32", "unit": "µg/mL"}, {"measurement": "MIC ATB combined with Example 11 @8 μg/ml", "setting": "PAE UFR90; with Example 11 at 8 μg/ml", "value": ">32", "unit": "µg/mL"}, {"measurement": "MIC ATB combined with Example 12 @8 μg/ml", "setting": "PAE UFR90; with Example 12 at 8 μg/ml", "value": ">32", "unit": "µg/mL"}, {"measurement": "MIC ATB combined with Example 13 @8 μg/ml", "setting": "PAE UFR90; with Example 13 at 8 μg/ml", "value": ">32", "unit": "µg/mL"}, {"measurement": "MIC ATB combined with Example 14 @8 μg/ml", "setting": "PAE UFR90; with Example 14 at 8 μg/ml", "value": ">32", "unit": "µg/mL"}, {"measurement": "MIC ATB combined with Example 15 @4 μgml", "setting": "PAE UFR90; with Example 15 at 4 μg/ml", "value": ">32", "unit": "µg/mL"}, {"measurement": "MIC ATB combined with Example 16 @4 μg/ml", "setting": "PAE UFR90; with Example 16 at 4 μg/ml", "value": ">32", "unit": "µg/mL"}, {"measurement": "MIC", "setting": "PAE UFR90; [1]", "value": "> 32", "unit": "µg/mL"}, {"measurement": "MIC ATB combined with Example 1 @8 μg/ml", "setting": "SAU 29213; with Example 1 @8 μg/ml", "value": 0.25, "unit": "µg/mL"}, {"measurement": "MIC ATB combined with Example 1 @8 μg/ml", "setting": "SAU 29213; with Example 1 at 8 μg/ml", "value": 0.25, "unit": "µg/mL"}, {"measurement": "MIC ATB combined with Example 9 @4 μg/ml", "setting": "SAU 29213; with Example 9 @4 μg/ml", "value": "<0.031", "unit": "µg/mL"}, {"measurement": "MIC ATB combined with Example 9 @4 μg/ml", "setting": "SAU 29213; with Example 9 at 4 μg/ml", "value": "<0.031", "unit": "µg/mL"}, {"measurement": "MIC ATB combined with Example 11 @8 μg/ml", "setting": "SAU 29213; with Example 11 at 8 μg/ml", "value": "<0.031", "unit": "µg/mL"}, {"measurement": "MIC ATB combined with Example 12 @8 μg/ml", "setting": "SAU 29213; with Example 12 at 8 μg/ml", "value": "<0.031", "unit": "µg/mL"}, {"measurement": "MIC ATB combined with Example 14 @8 μg/ml", "setting": "SAU 29213; with Example 14 at 8 μg/ml", "value": "<0.031", "unit": "µg/mL"}, {"measurement": "MIC ATB combined with Example 15 @4 μgml", "setting": "SAU 29213; with Example 15 at 4 μg/ml", "value": "<0.031", "unit": "µg/mL"}, {"measurement": "MIC ATB combined with Example 16 @4 μg/ml", "setting": "SAU 29213; with Example 16 at 4 μg/ml", "value": "<0.031", "unit": "µg/mL"}, {"measurement": "MIC", "setting": "SAU 29213; Staphylococcus aureus, antibiotic alone, read-out: MIC ATB alone", "value": 2, "unit": "µg/mL"}, {"measurement": "MIC ATB combined with Example 7 @8 μgml", "setting": "SPN 49619; with Example 7 at 8 μg/ml", "value": "<=0.031 μg/mL"}, {"measurement": "MIC ATB combined with Example 9 @4 μg/ml", "setting": "SPN 49619; with Example 9 @4 μg/ml", "value": "<0.031", "unit": "µg/mL"}, {"measurement": "MIC ATB combined with Example 9 @4 μg/ml", "setting": "SPN 49619; with Example 9 at 4 μg/ml", "value": "<0.031", "unit": "µg/mL"}, {"measurement": "MIC ATB combined with Example 11 @8 μg/ml", "setting": "SPN 49619; with Example 11 at 8 μg/ml", "value": "<0.031", "unit": "µg/mL"}, {"measurement": "MIC ATB combined with Example 12 @8 μg/ml", "setting": "SPN 49619; with Example 12 at 8 μg/ml", "value": "<0.031", "unit": "µg/mL"}, {"measurement": "MIC ATB combined with Example 13 @8 μg/ml", "setting": "SPN 49619; with Example 13 at 8 μg/ml", "value": "<=0.031 μg/mL"}, {"measurement": "MIC ATB combined with Example 14 @8 μg/ml", "setting": "SPN 49619; with Example 14 at 8 μg/ml", "value": "<0.031", "unit": "µg/mL"}, {"measurement": "MIC ATB combined with Example 15 @4 μgml", "setting": "SPN 49619; with Example 15 at 4 μg/ml", "value": "<0.031", "unit": "µg/mL"}, {"measurement": "MIC ATB combined with Example 16 @4 μg/ml", "setting": "SPN 49619; with Example 16 at 4 μg/ml", "value": "<0.031", "unit": "µg/mL"}]}
